From patent US9938335B2, “Glucagon and GLP-1 co-agonist compounds” (Eli Lilly and Company, priority 2015, dated 2018)
Like-named read-outs stand apart in the source and are kept apart here. Marks after values point to notes of the source that are not given here.

How the values were obtained:
DIO mice (C57BL/6) [1] = experiment: Effects on energy expenditure in DIO mice (indirect calorimetry); type: in vivo, mouse; conditions: for Cumulative Heat (Kcal/kg lean mass/3 day): test article 15 nmol/kg, semaglutide 60 nmol/kg sc every three days
Procedure: Seven to eight months old male DIO mice (C57BL/6) weighing 45-50 g are used in this study to assess the effect of compounds of the present invention on energy metabolism. Animals are individually housed in a temperature-controlled (24° C.) facility with a 12 hour light/dark cycle (lights on 22:00), and free access to food (TD95217)(Teklad) and water. After 2 weeks acclimation to the facility, mice are randomized to treatment groups (N=6/group) based on body weight so each group has similar starting mean body weight. Animals are placed in a PhenoMaster/LabMaster calorimeter (TSE Systems, Chesterfield, Mo.) for 8 days of acclimation.
Heat and […] (RER) are measured by indirect calorimetry as described using an open-circuit calorimetry system. RER is the ratio of the volume of CO2 produced (VCO2) to the volume of O2 consumed (VO2). Heat is calculated with lean body weight considered. The energy expenditure is kcal/kg/3 day and expressed as mean±SEM of 6 mice per group. Statistical significance is assessed by two-way ANOVA followed by Tukey's multiple comparison test.

[2] = Pharmacokinetics in cynomolgus monkeys; type: in vivo; conditions: Table 8: single SC 50 nmol/kg; for Cmax: read-out: Cmax
Procedure: The compounds are administered by a single intravenous or subcutaneous dose of 50 nmole/kg or 250 nmole/kg.
The plasma concentrations of compounds are determined by a LC/MS method. Briefly, a compound of the present invention is extracted from 100% monkey plasma (25 μl) using acetonitrile. Two distinct layers are formed upon centrifugation with the compound located in the liquid layer. An 80 μl aliquot of the supernatant was transferred to a 96-well plate, diluted with 150 μl of water and 25 μl of formic acid. The diluted sample (10 μl) was injected onto a Supelco Analytical Discovery BIO Wide Pore C5-3, 5 cm×1 mm, 3 um column. The column effluent is directed into a Thermo Q-Exactive mass spectrometer for detection and quantitation.

hGLP-1-R = hGLP-1-R (Homo sapiens, UniProt P43220); experiment: Functional hGLP-1-R assay (cAMP HTRF, HEK-293 clonal cell line); type: cell-based; design: expressed in transfected cells; host or cells: HEK-293 clonal cell line over-expressing the receptor
Sequence of hGLP-1-R (P43220 24-463): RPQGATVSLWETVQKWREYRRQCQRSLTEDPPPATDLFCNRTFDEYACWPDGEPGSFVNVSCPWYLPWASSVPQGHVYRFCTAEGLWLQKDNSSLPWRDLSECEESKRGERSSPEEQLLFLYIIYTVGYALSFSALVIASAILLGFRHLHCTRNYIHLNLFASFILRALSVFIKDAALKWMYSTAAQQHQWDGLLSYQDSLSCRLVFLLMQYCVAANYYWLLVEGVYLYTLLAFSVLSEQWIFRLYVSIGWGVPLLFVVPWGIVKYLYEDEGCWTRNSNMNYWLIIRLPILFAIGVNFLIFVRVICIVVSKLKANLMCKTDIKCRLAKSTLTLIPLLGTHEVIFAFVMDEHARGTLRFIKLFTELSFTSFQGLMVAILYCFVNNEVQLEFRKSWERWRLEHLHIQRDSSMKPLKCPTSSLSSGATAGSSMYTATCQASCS
Procedure: After a 60 minute incubation at room temperature, the resulting increase in intracellular cAMP (adenosine 3′,5′-cyclic monophosphate) is quantitatively determined using the CisBio cAMP Dynamic 2 HTRF Assay Kit (62AM4PEJ). cAMP levels within the cell are detected by adding the cAMP-d2 conjugate in cell lysis buffer (20 μl) followed by the antibody anti-cAMP-Eu^3+-Cryptate, also in cell lysis buffer (20 μl).
A relative EC50 value and percent top (Emax) are derived by non-linear regression analysis using the percent maximal response vs. the concentration of peptide added, fitted to a four-parameter logistic equation (Genedata Screener®).
Means for EC50 are expressed as Geometric means±standard error of the mean (SEM) with the number of replicates (n) indicated in parenthesis. Means for Emax are expressed as the arithmetic mean±standard error. ND signifies that agonist activity was not detected.

DIO mice (C57BL/6) [3] = experiment: Acute treatment in DIO mice (PCSK9, FGF-21, cholesterol); type: in vivo, mouse; conditions: 30 nmol/kg sc, 16 hours post dose
Procedure: In order to investigate metabolic pathways involved with the treatment of compounds of the present invention independent of weight loss, compounds are tested in DIO mice (C57BL/6) acutely. The mice used are three to four months old on a high fat diet for at least 4 weeks. Animals are individually housed in a temperature-controlled (24° C.) facility with a 12 hour light/dark cycle (lights on 6:00), and free access to food and water. Vehicle or testing compounds were administered to mice by subcutaneous injection at 16:00 the day before the study day. Animals were sacrificed 16 hours later to collect blood via cardia puncture. Statistics are analyzed using ANOVA with Dunnett's comparison for JMP-6. Significance is denoted at p≤0.05 vs vehicle.
Food intake was decreased to a similar level in all treatment groups, which may indicate that changes in cholesterol, PCSK9 and FGF-21 are food-intake independent.

hGcg-R = hGcg-R (Homo sapiens, UniProt P47871); experiment: Functional activation of hGcg-R in primary human hepatocytes (cAMP); type: cell-based; design: stimulating cAMP production at the endogenous Gcg receptors; endogenous in cells; host or cells: cryopreserved primary human hepatocytes
Sequence of hGcg-R (P47871 26-477): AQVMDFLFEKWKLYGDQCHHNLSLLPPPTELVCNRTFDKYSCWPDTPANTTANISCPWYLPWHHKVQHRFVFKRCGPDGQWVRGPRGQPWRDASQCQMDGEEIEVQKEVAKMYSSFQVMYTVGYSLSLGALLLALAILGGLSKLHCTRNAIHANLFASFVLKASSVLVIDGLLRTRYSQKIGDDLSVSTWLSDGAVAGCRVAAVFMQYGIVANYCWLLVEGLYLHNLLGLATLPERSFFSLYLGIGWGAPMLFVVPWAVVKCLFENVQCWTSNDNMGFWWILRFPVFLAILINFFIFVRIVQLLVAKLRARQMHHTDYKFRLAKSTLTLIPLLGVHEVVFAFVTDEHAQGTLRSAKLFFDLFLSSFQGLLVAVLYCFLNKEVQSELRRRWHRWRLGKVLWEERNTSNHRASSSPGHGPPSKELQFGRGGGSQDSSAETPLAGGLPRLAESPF
Procedure: Primary human hepatocytes are used to determine functional activity of compounds on stimulating cAMP production at the endogenous Gcg receptors. Vials of human primary hepatocytes are frozen in a liquid nitrogen tank. Upon removal, vials are thawed immediately in a water bath having a temperature of 37° C. Cell suspension is then transferred to 50 ml CHRM (Gibco/Life Technologies cat#CM7000 Cryopreserved Hepatocyte Recovery Medium).
The cell suspension is centrifuged at 1,000×g for 10 min. Cell pellets are resuspended in 5 ml of Plating Media after removing the CHRM by aspiration. The Plating Media is prepared by adding entire contents of CM3000 Supplement Packs to 500 ml Williams Media (Gibco/Life Technologies), followed by sterile filtration through a 0.22 μm membrane.
The cell density is counted on hemocytometer, by adding 100 μl of cell suspension to 100 μl Trypan Blue (HyClone Trypan Blue 0.04%, catalog number SV30084.01). The cell suspension is further diluted in the Plating Media to the final cell density of 0.8×10^6 cells per ml. […] 65 ml of the cell suspension is then added to each well of the Collagen coated 96-well plate to final cell density 50,000 cells per well. The cell plate is incubated in a 37° C., 5% CO2 incubator for 3-4 hours.
After 3-4 hours incubation, the media is aspirated and replaced with 100 ml Maintenance Media. The maintenance media is prepared by adding entire contents of CM4000 Supplement Packs to 500 ml Williams Media (Gibco/Life Technologies), followed by sterile filtration through a 0.22 μm membrane. The cell plate is returned to the 37° C., 5% CO2 incubator overnight in preparation for the cAMP assay.
The cell plate is removed from the incubator and the media is removed by gentle aspiration without disturbing the cell monolayer.
cAMP concentration is measured using a HTRF cAMP assay kit (Cisbio): cAMP-d2 conjugate in cell lysis buffer (40 μl) followed by the antibody anti-cAMP-Eu^3+-Cryptate, also in cell lysis buffer (40 μl), is added to the cells of the plate.

rat GLP-1-R = target: T1, rat GLP-1-R (Rattus norvegicus, UniProt P32301); experiment: Functional activation of the rat GLP-1-R in insulinoma cell line INS1 832-3 (cAMP); type: cell-based
T1 construct: stimulating cAMP production at the endogenous GLP-1 receptors; endogenous in cells; host or cells: INS1 832-3 rat insulinoma cells
T1 sequence (P32301 22-463): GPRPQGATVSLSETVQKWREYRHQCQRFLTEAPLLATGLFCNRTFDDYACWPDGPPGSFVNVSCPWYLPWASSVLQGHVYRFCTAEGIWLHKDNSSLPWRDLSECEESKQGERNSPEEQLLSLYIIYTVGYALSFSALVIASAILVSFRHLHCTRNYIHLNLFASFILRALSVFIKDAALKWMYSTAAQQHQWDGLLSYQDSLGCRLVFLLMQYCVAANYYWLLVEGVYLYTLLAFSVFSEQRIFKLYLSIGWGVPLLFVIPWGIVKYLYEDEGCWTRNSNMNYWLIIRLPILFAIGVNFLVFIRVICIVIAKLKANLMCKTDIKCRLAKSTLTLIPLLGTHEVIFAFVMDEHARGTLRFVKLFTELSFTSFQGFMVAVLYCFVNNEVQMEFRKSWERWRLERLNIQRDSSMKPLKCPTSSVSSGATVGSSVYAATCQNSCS
Procedure: Performance of the assay requires detachment of the cells from culture flasks using Enzyme Free Cell Stripper and pelleted by centrifugation at 1000 rpm for 5 minutes at room temperature. […] After 2 hours starvation, cells are treated with compound by adding 10 μl of 5× compound dilutions into the cell plates (n=2) and incubated in a 37° C., 5% CO2 incubator for 30 minutes.
cAMP concentration is measured using a HTRF cAMP assay kit (Cisbio): cAMP-d2 conjugate in cell lysis buffer (20 μl) followed by the antibody anti-cAMP-Eu^3+-Cryptate, also in cell lysis buffer (20 μl), is added to the cells of the plate.
The assay is performed with duplicated plates.

[4] = male, cynomolgus monkey, plasma, sc, 50 nmol/kg, individual animals
[5] = male, cynomolgus monkey, plasma, sc, 50 nmol/kg, mean

AUC(0-inf) ([2]; individual animals): 21.672 µM·h | CL/F ([2]; individual animals): 2.31 mL/h/kg | Cmax ([2]; individual animals): 253 nM | T1/2 ([2]; male cynomolgus monkeys, individual animals): 47 h | Tmax [2, 4]: 12 h | AUC(0-inf) ([2]; male, cynomolgus monkey, plasma, sc, 50 nmol/kg, individual animals, read-out: AUC0-inf): 24.9 µM·h | CL/F ([2]; male, cynomolgus monkey, plasma, sc, 50 nmol/kg, individual animals, read-out: CL/F (converted)): 2.01 mL/h/kg | Cmax [2, 4]: 236 nM | half-life ([2]; male, cynomolgus monkey, plasma, sc, 50 nmol/kg, male cynomolgus monkeys, individual animals): 67 h | Tmax [2, 5]: ~12 h | half-life [2, 5]: 57 h | AUC(0-inf) ([2]; male, cynomolgus monkey, plasma, sc, 50 nmol/kg, mean, read-out: AUC0-inf): 23.3 µM·h | CL/F ([2]; male, cynomolgus monkey, plasma, sc, 50 nmol/kg, mean, read-out: CL/F (converted)): 2.16 mL/h/kg | Cmax [2, 5]: 244 nM | Emax (hGLP-1-R; HEK293): 104 ± 7% | EC50 (hGLP-1-R; cAMP, 60 minute incubation, 0.25% FBS, 0.05% BSA, geometric mean, read-out: Human GLP-1-R EC50, nM ± SEM (n)): 23.9 ± 4.5 nM | Emax (hGcg-R; percent of maximal response with a Gcg analog conjugated to a saturated C18 fatty acid (diacid)): 100% | EC50 (hGcg-R; primary human hepatocytes, cAMP, 1 hour): 99.9 nM | EC50 (rat GLP-1-R; INS1 832-3 cells, cAMP, 30 minutes): 26.1 nM | Emax (rat GLP-1-R; INS1, percent of maximal response with native GLP-1 peptide at 300 nM): 112%
Structure (SMILES): CC(C)C[C@H](NC(=O)[C@H](CC(C)C)NC(=O)[C@H](Cc1c[nH]c2ccccc12)NC(=O)[C@H](CCC(=O)O)NC(=O)[C@@H](NC(=O)[C@H](Cc1ccccc1)NC(=O)[C@H](CCC(=O)O)NC(=O)[C@H](CCCCNC(=O)COCCOCCNC(=O)COCCOCCNC(=O)CC[C@H](NC(=O)CCCCCCCCCCCCCCCCC(=O)O)C(=O)O)NC(=O)[C@H](C)NC(=O)[C@H](CCCCN)NC(=O)[C@H](CCCCN)NC(=O)[C@H](CCC(=O)O)NC(=O)[C@H](CC(=O)O)NC(=O)[C@H](CC(C)C)NC(=O)[C@H](Cc1ccc(O)cc1)NC(=O)[C@H](CCCCN)NC(=O)[C@H](CO)NC(=O)[C@H](Cc1ccc(O)cc1)NC(=O)[C@H](CC(=O)O)NC(=O)[C@H](CO)NC(=O)[C@@H](NC(=O)[C@H](Cc1ccccc1)NC(=O)[C@@H](NC(=O)CNC(=O)[C@H](CCC(N)=O)NC(=O)C(C)(C)NC(=O)[C@@H](N)Cc1c[nH]cn1)[C@@H](C)O)[C@@H](C)O)C(C)C)C(=O)N[C@@H](CCC(=O)O)C(=O)NCC(=O)NCC(=O)N1CCC[C@H]1C(=O)N[C@@H](CO)C(=O)N[C@@H](CO)C(=O)NCC(N)=O [Compound 1]
metabolic rate (DIO mice (C57BL/6) [1]; DIO mice, chronic treatment): increased their metabolic rate starting from Week 2 | Cumulative Heat (Kcal/kg lean mass/3 day) (DIO mice (C57BL/6) [1]; Day 1 to Day 4): 1749 ± 136 Kcal/kg lean mass/3 day | Cumulative Heat (Kcal/kg lean mass/3 day) (DIO mice (C57BL/6) [1]; Day 4 to Day 7): 1822 ± 173 Kcal/kg lean mass/3 day | Cumulative Heat (Kcal/kg lean mass/3 day) (DIO mice (C57BL/6) [1]; Day 7 to Day 10): 2349 ± 129 Kcal/kg lean mass/3 day | Cumulative Heat (Kcal/kg lean mass/3 day) (DIO mice (C57BL/6) [1]; Day 10 to Day 13): 2351 ± 144 Kcal/kg lean mass/3 day | Cholesterol (% of vehicle) (DIO mice (C57BL/6) [3]): 60.9* % of vehicle | FGF-21 (% of vehicle) (DIO mice (C57BL/6) [3]): 1770* % of vehicle | PCSK9 (% of vehicle) (DIO mice (C57BL/6) [3]): 14.6* % of vehicle | cAMP production (hGcg-R; primary human hepatocytes, data not shown): increased cAMP production in a dose-dependent manner | cAMP production (rat GLP-1-R; INS1 832-3 cells, data not shown): increased cAMP production in a dose-dependent manner
